In article PMC9516332 (Frontiers in Oncology, 2022):
Read-outs that look alike come from different tables or passages of the source.

Tested on: 134 cancer cell lines
Assay: Cell viability assay (ATPlite, 72 hours), IC50 on cancer cell line panel

IC50 (HEC-6, read-out: IC50 in cell proliferation assay, HEC-6 cell line (EGFR p.A289V)): 3.25 µM | IC50 (Homo sapiens, 769-P, read-out: IC50 in cell proliferation assay, cell line 769-P): 2.85 µM | IC50 (Homo sapiens, 786-0, read-out: IC50 in cell proliferation assay, cell line 786-O): 3.28 µM | IC50 (Homo sapiens, A 172, read-out: IC50 in cell proliferation assay, cell line A-172): 3.94 µM | IC50 (Homo sapiens, A204, read-out: IC50 in cell proliferation assay, cell line A-204): 2.68 µM | IC50 (Homo sapiens, A498, read-out: IC50 in cell proliferation assay, cell line A-498): 4.17 µM | IC50 (Homo sapiens, A549, read-out: IC50 in cell proliferation assay, cell line A-549): 4.56 µM | IC50 (Homo sapiens, A704, read-out: IC50 in cell proliferation assay, cell line A-704): 6.19 µM | IC50 (Homo sapiens, A-375, read-out: IC50 in cell proliferation assay, cell line A-375 (BRAF p.V600E)): 1.61 µM | IC50 (Homo sapiens, A-427, read-out: IC50 in cell proliferation assay, cell line A-427): 1.45 µM | IC50 (Homo sapiens, ACHN, read-out: IC50 in cell proliferation assay, cell line ACHN): 4.78 µM | IC50 (Homo sapiens, AN3-CA, read-out: IC50 in cell proliferation assay, cell line AN3-CA (FGFR2 p.N549K)): 4.14 µM | IC50 (Homo sapiens, ASPC1, read-out: IC50 in cell proliferation assay, cell line AsPC-1): 1.34 µM | IC50 (Homo sapiens, AU565, read-out: IC50 in cell proliferation assay, cell line AU565 (ERBB2 amplification)): 3.26 µM | IC50 (Homo sapiens, BT-20, read-out: IC50 in cell proliferation assay, cell line BT-20): 6.05 µM | IC50 (Homo sapiens, BT-474, read-out: IC50 in cell proliferation assay, cell line BT-474 (ERBB2 amplification)): 3.2 µM | IC50 (Homo sapiens, BT-549, read-out: IC50 in cell proliferation assay, cell line BT-549): 3.83 µM | IC50 (Homo sapiens, BXPC-3, read-out: IC50 in cell proliferation assay, cell line BxPC-3): 1.7 µM | IC50 (Homo sapiens, C-33-A, read-out: IC50 in cell proliferation assay, cell line C-33 A): 4.46 µM | IC50 (Homo sapiens, CAL-27, read-out: IC50 in cell proliferation assay, cell line CAL-27): 3.02 µM | IC50 (Homo sapiens, CCF-STTG1, read-out: IC50 in cell proliferation assay, cell line CCF-STTG1): 4.5 µM | IC50 (Homo sapiens, CCRF-CEM, read-out: IC50 in cell proliferation assay, cell line CCRF-CEM): 3.89 µM | IC50 (Homo sapiens, COLO 205, read-out: IC50 in cell proliferation assay, cell line COLO 205 (BRAF p.V600E)): 1.88 µM | IC50 (Homo sapiens, COLO-829, read-out: IC50 in cell proliferation assay, cell line COLO 829 (BRAF p.V600E)): 3.26 µM | IC50 (Homo sapiens, DLD-1, read-out: IC50 in cell proliferation assay, cell line DLD-1): 4.38 µM | IC50 (Homo sapiens, DU-4475, read-out: IC50 in cell proliferation assay, cell line DU4475 (BRAF p.V600E)): 2.18 µM | IC50 (Homo sapiens, Daoy, read-out: IC50 in cell proliferation assay, cell line Daoy): 4.95 µM | IC50 (Homo sapiens, DoTc2-4510, read-out: IC50 in cell proliferation assay, cell line DoTc2 4510): 1.19 µM | IC50 (Homo sapiens, EOL1, read-out: IC50 in cell proliferation assay, cell line EoL-1 (FIP1L1-PDGFRA)): 0.564 µM | IC50 (Homo sapiens, FaDu, read-out: IC50 in cell proliferation assay, cell line FaDu): 3.25 µM | IC50 (Homo sapiens, G-361, read-out: IC50 in cell proliferation assay, cell line G-361 (BRAF p.V600E)): 1.51 µM | IC50 (Homo sapiens, HCC827, read-out: IC50 in cell proliferation assay, cell line HCC827 (EGFR exon19del)): 3.71 µM | IC50 (Homo sapiens, HCC4006, read-out: IC50 in cell proliferation assay, cell line HCC4006 (EGFR exon19del)): 2.73 µM | IC50 (Homo sapiens, HCT-15, read-out: IC50 in cell proliferation assay, cell line HCT 15): 3.81 µM | IC50 (Homo sapiens, HCT-116, read-out: IC50 in cell proliferation assay, cell line HCT 116): 2.72 µM | IC50 (Homo sapiens, HEC-1, read-out: IC50 in cell proliferation assay, HEC-1 cell line): 2.71 µM | IC50 (Homo sapiens, HEC-1B, read-out: IC50 in cell proliferation assay, HEC-1-B cell line (EGFR p.A864V)): 1.96 µM | IC50 (Homo sapiens, HL-60, read-out: IC50 in cell proliferation assay, HL-60 cell line): 0.951 µM | IC50 (Homo sapiens, HT, read-out: IC50 in cell proliferation assay, HT cell line): 4.74 µM | IC50 (Homo sapiens, HT-1080, read-out: IC50 in cell proliferation assay, HT-1080 cell line): 2 µM | IC50 (Homo sapiens, Hs746T, read-out: IC50 in cell proliferation assay, Hs 746.T cell line (MET exon14skip + amplification)): 3.34 µM | IC50 (Homo sapiens, Hs-578T, read-out: IC50 in cell proliferation assay, Hs 578T cell line): 4.07 µM | IC50 (Homo sapiens, HuTu80, read-out: IC50 in cell proliferation assay, HuTu 80 cell line): 1.67 µM | IC50 (Homo sapiens, J82, read-out: IC50 in cell proliferation assay, J82 cell line): 4.5 µM | IC50 (Homo sapiens, Jurkat E6.1, read-out: IC50 in cell proliferation assay, Jurkat E6.1 cell line): 4.07 µM | IC50 (Homo sapiens, K562, read-out: IC50 in cell proliferation assay, K-562 cell line): 3.97 µM | IC50 (Homo sapiens, KATO III, read-out: IC50 in cell proliferation assay, KATO III cell line (FGFR2 amplification)): 2.36 µM | IC50 (Homo sapiens, KG-1, read-out: IC50 in cell proliferation assay, KG-1 cell line (FGFR1OP2-FGFR1)): 3.85 µM | IC50 (Homo sapiens, KLE, read-out: IC50 in cell proliferation assay, KLE cell line): 3.58 µM | IC50 (Homo sapiens, KMS-11, read-out: IC50 in cell proliferation assay, KMS-11 cell line (FGFR3 p.Y373C)): 1.31 µM | IC50 (Homo sapiens, KU812, read-out: IC50 in cell proliferation assay, Ku812 cell line): 1.88 µM | IC50 (Homo sapiens, Kasumi 1, read-out: IC50 in cell proliferation assay, Kasumi-1 cell line (KIT p.N822K)): 1.04 µM | IC50 (Homo sapiens, LC-2-ad, read-out: IC50 in cell proliferation assay, LC-2/ad cell line (CCDC6-RET)): 2.02 µM | IC50 (Homo sapiens, LNCaP-Clone-FGC, read-out: IC50 in cell proliferation assay, LNCaP clone FGC cell line): 3.72 µM | IC50 (Homo sapiens, LS174T, read-out: IC50 in cell proliferation assay, LS174T cell line): 2 µM | IC50 (Homo sapiens, LS-411N, read-out: IC50 in cell proliferation assay, LS411N cell line (BRAF p.V600E)): 1.97 µM | IC50 (Homo sapiens, LoVo, read-out: IC50 in cell proliferation assay, LoVo cell line): 3.47 µM | IC50 (Homo sapiens, MCF7, read-out: IC50 in cell proliferation assay, MCF-7 cell line): 2.77 µM | IC50 (Homo sapiens, MDA-MB-231, read-out: IC50 in cell proliferation assay, MDA-MB-231 cell line): 0.782 µM | IC50 (Homo sapiens, MDA-MB-453, read-out: IC50 in cell proliferation assay, MDA-MB-453 cell line): 0.944 µM | IC50 (Homo sapiens, MDA-MB-468, read-out: IC50 in cell proliferation assay, MDA-MB-468 cell line): 4.45 µM | IC50 (Homo sapiens, MG-63, read-out: IC50 in cell proliferation assay, MG-63 cell line): 3.04 µM | IC50 (Homo sapiens, MIA PaCa-2, read-out: IC50 in cell proliferation assay, MIA PaCa-2 cell line): 2.19 µM | IC50 (Homo sapiens, MKN-45, read-out: IC50 in cell proliferation assay, MKN45 cell line (MET amplification)): 3.52 µM | IC50 (Homo sapiens, MOLM-13, read-out: IC50 in cell proliferation assay, MOLM-13 cell line (FLT3 ITD)): 0.995 µM | IC50 (Homo sapiens, MOLT-4, read-out: IC50 in cell proliferation assay, MOLT-4 cell line): 3.76 µM
SMILES: Cc1cc(Nc2ncc(Cl)c(Nc3ccccc3S(=O)(=O)C(C)C)n2)c(OC(C)C)cc1C1CCNCC1 [ceritinib]
